What all share (format): cell-based
One test has as its target T1, KCNQ2 mutant S121A (Homo sapiens, UniProt O43526, S121A).
T1 construct: expressed in transfected cells; host or cells: CHO cells
Description: KCNQ2 S1-S2 mutant S121A in CHO cells. Particulars: 25 μM NH29. The source says: (§1) FIGS. 12A-F present the potentiating effect of NH29, an exemplary channel opener compound according to embodiments of the present invention, on selected KCNQ2 mutants. Shown are bar diagrams comparing the potentiating effect of NH29 on native KCNQ2 and KCNQ2 mutants, wherein the mutated amino acids are located at the S1-S2 helix region (FIG. 12A) or S4 helix region (FIG. 12D) and wherein the opener effect is expressed as percent of the control current in the absence of the opener. For comparison, marked as a green line, is the observed current increase of native KCNQ2 by NH29. FIGS. 12B 12C, 12E and 12F present representative traces recorded from CHO cell transfected with the KCNQ2 mutant S122A, S121A, L206C and R201A respectively, before and after external application of 25 μM of NH29 and wherein the membrane potential was stepped from −90 mV holding potential to −40 mV for 1.5 seconds pulse duration.
(§2) Voltage-clamp recordings in CHO cells were performed, using the whole-cell configuration of the patch-clamp technique. Signals were amplified using an Axopatch 200B patch-clamp amplifier (Molecular Devices, Sunnyvale, Calif.), sampled at 2 kHz and filtered at 800 Hz via a 4-pole Bessel low pass filter. […] Series resistances (3-13 MΩ) were compensated (75-90%) and periodically monitored.

The target in the next test is T2, KCNQ2 mutant I209L (Homo sapiens, UniProt O43526, I209L).
T2 construct: expressed in transfected cells; host or cells: CHO cells
T2 sequence (O43526 whole entry I209L): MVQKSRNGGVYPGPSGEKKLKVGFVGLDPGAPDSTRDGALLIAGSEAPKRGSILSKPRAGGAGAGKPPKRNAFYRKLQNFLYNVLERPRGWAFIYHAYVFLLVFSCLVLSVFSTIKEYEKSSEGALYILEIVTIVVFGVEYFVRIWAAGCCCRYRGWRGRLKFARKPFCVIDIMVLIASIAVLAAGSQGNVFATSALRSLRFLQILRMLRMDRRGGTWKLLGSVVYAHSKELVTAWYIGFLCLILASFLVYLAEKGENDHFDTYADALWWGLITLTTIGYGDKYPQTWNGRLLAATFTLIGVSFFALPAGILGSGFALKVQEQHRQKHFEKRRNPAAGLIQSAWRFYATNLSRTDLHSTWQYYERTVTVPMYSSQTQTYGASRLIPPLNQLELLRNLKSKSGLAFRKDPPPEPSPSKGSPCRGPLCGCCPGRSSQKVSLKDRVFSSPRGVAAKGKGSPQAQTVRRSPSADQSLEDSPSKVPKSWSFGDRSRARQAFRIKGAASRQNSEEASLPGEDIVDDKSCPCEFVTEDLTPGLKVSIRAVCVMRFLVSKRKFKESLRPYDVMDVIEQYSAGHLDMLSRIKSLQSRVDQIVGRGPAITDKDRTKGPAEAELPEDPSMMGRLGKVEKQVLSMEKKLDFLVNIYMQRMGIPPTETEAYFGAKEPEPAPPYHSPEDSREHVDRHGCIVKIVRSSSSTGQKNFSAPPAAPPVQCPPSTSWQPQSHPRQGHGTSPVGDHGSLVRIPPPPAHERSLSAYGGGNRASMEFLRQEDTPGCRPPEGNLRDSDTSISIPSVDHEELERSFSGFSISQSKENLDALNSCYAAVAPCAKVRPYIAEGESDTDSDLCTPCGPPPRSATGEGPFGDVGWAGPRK
Description: KCNQ2 S4 mutant I209L. Particulars: NH29.
Excerpt: as §1, §2

Another test addresses T3, Kv7.2 (Homo sapiens, UniProt O43526).
T3 construct: expressed in transfected cells; host or cells: Xenopus oocytes
Description: Kv channel selectivity, Xenopus oocytes: Kv7.2. Particulars: −40 mV. How it is done: Voltage-clamp measurements in Xenopus oocytes were performed as previously described.
The selectivity of NH29 on other relevant Kv channels expressed in Xenopus oocytes was also studied, and the results are summarized in Table 3 below. The specificity of NH29 at 25 μM and 50 μM towards various Kv channels was tested in Xenopus oocytes, except for Kv1.2 which was checked in transfected CHO cells. The current amplitude of the various Kv channels was tested at the indicated voltages and the effect of the drugs was expressed as fold of the control amplitude measured under the same conditions in the absence of the drug. The data in Table 3 are expressed as mean±SEM of 5-7 separate experiments.

T3 sequence (O43526 whole entry): as the sequence (O43526 whole entry I209L) above, with L209I counted along it
T1 sequence (O43526 whole entry S121A): as the sequence (O43526 whole entry I209L) above, with S121A, L209I counted along it

Take `O=C(Cc1cc([N+](=O)[O-])cc([N+](=O)[O-])c1Nc1c(Cl)cc([N+](=O)[O-])cc1Cl)NCCO` [NH29]: the “fold activation of current” value on KCNQ2 mutant S121A amounted to 2 fold. Also, the “sensitivity to the activating effect compared to wild-type Kv7.2” value on KCNQ2 mutant I209L is “significantly less sensitive”. The Fold current amplitude at Kv7.2 (25 μM) is 3.5 ± 0.4 fold; at Kv7.2 (50 μM), 6.8 ± 0.7 fold.

The values above are taken from patent US9403756B2, “N-phenyl anthranilic acid derivatives and uses thereof” (Ramot at Tel-Aviv University Ltd., priority 2007, dated 2016).
